Source: patent EP0832650A2 (ELI LILLY AND COMPANY, priority 1996, dated 1998)
Structures can show the parent of a compound that is named as a salt.

Tested on: neuronal protein extravasation
Assay: Neuronal protein extravasation in dura after electrical stimulation of the trigeminal ganglion
Format: in vivo, Harlan Sprague-Dawley rats or guinea pigs
Settings: 10 minutes before trigeminal ganglion stimulation, dose inhibiting extravasation by 50%, approximated from dose-response curve, species (rat or guinea pig) not given
Protocol: Harlan Sprague-Dawley rats (250-350 g) or guinea pigs from Charles River Laboratories (250-350 g) were anesthetized with sodium pentobarbital intraperitoneally (65 mg/kg or 45 mg/kg respectively) and placed in a stereotaxic frame (David Kopf Instruments) with the incisor bar set at -3.5 mm for rats or -4.0 mm for guinea pigs. Following a midline sagital scalp incision, two pairs of bilateral holes were drilled through the skull (6 mm posteriorly, 2.0 and 4.0 mm laterally in rats; 4 mm posteriorly and 3.2 and 5.2 mm laterally in guinea pigs, all coordinates referenced to bregma) . Pairs of stainless steel stimulating electrodes, insulated except at the tips, (Rhodes Medical Systems, Inc.) were lowered through the holes in both hemispheres to a depth of 9 mm (rats) or 10.5 mm (guinea pigs) from dura.
The femoral vein was exposed and a dose of the test compound was injected intravenously (1 mL/kg). Approximately 7 minutes later, a 50 mg/kg dose of Evans Blue, a fluorescent dye, was also injected intravenously. The Evans Blue complexed with proteins in the blood and functioned as a marker for protein extravasation. Exactly 10 minutes post-injection of the test compound, the left trigeminal ganglion was stimulated for 3 minutes at a current intensity of 1.0 mA (5 Hz, 4 msec duration) with a Model 273 potentiostat/ galvanostat (EG&G Princeton Applied Research).
Fifteen minutes following stimulation, the animals were killed by exsanguination with 40 mL of saline. The top of the skull was removed to facilitate the collection of the dural membranes. The membrane samples were removed from both hemispheres, rinsed with water, and spread flat on microscopic slides. Once dried, the tissues were coverslipped with a 70% glycerol/water solution.
A fluorescence microscope (Zeiss) equipped with a grating monochromator and a spectrophotometer was used to quantify the amount of Evans Blue dye in each sample. An excitation wavelength of approximately 535 nm was utilized and the emission intensity at 600 nm was determined. The microscope was equipped with a motorized stage and also interfaced with a personal computer. This facilitated the computer-controlled movement of the stage with fluorescence measurements at 25 points (500 µm steps) on each dural sample. The mean and standard deviation of the measurements was determined by the computer.
The extravasation induced by the electrical stimulation of the trigeminal ganglion was an ipsilateral effect (i.e. occurs only on the side of the dura in which the trigeminal ganglion was stimulated). This allows the other (unstimulated) half of the dura to be used as a control. The ratio of the amount of extravasation in the dura from the stimulated side compared to the unstimulated side dura was calculated. Saline controls yielded a ratio of approximately 2.0 in rats and 1.8 in guinea pigs. […]

Row | SMILES | Inhibition of Protein Extravasation i.v. ID50 [mmol/kg]
1 | CNS(=O)(=O)Cc1ccc2[nH]cc(CCN(C)C)c2c1.O=C(O)CCC(=O)O [Compound I, 3-[2-(dimethylamino)ethyl]-N-methyl-1H-indole-5-methanesulfonamide butane-1,4-dioate (1:1)] | 2.6e-08
2 | Cn1cc(CCN2CCC(c3c[nH]c4ccc(F)cc34)CC2)cn1 [Compound II, 5-fluoro-3-<1-<2-<1-methyl-1H-pyrazol-4-yl>ethyl>-4-piperidinyl>-1H-indole hydrochloride] | 8.6e-10
3 | O=C(O)C(=O)O.Oc1ccc2[nH]cc(C3CCNCC3)c2c1 [Compound III, 5-hydroxy-3-(4-piperidinyl)-1H-indole oxalate] | 8.9e-09
4 | CCN(CC)C1CCc2cccc(Cl)c2C1.Cl (centres unmarked) [Compound IV, 8-chloro-2-diethylamino-1,2,3,4-tetrahydronaphthalene hydrochloride] | 1.2e-07
5 | CN(C)C1CCc2[nH]c3ccc(O)cc3c2C1 (centres unmarked) [Compound V, 6-hydroxy-3-dimethylamino-1,2,3,4-tetrahydrocarbazole] | 8.7e-09
